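96-well plates; 48 h exposure; 5 concentrations. Endpoints by linear interpolation between flanking doses. Not reached: highest tested concentration assigned. The concentration for 50% growth inhibition is given as GI50. TGI: total growth inhibition.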
Key:
Experiment in all cases: NCI tumour cell line growth inhibition, 48 h
[1] = system: HCT-116 colon
[2] = system: OVCAR-8 ovarian
[3] = system: OVCAR-5 ovarian
[4] = system: MOLT-4 leukemia
[5] = system: CAKI-1 renal
[6] = system: SK-MEL-28 melanoma
[7] = system: DU-145 prostate
[8] = system: NCI-H522 lung
[9] = system: MALME-3M melanoma
[10] = system: UACC-257 melanoma
[11] = system: SK-MEL-2 melanoma
[12] = system: SNB-75 CNS
[13] = system: EKVX NSCLC
[14] = system: SNB-19 CNS
[15] = system: SN12C renal
[16] = system: MDA-MB-468 breast
[17] = system: SW-620 colon
[18] = system: IGROV1 ovarian
[19] = system: NCI-H460 lung
[20] = system: T-47D breast
[21] = system: M14 melanoma
[22] = system: HL-60(TB) leukemia
[23] = system: A549 NSCLC
[24] = system: HCC-2998 colon
[25] = system: MDA-MB-435
[26] = system: SF-268 CNS
[27] = system: RPMI-8226 leukemia
[28] = system: HOP-92 NSCLC
[29] = system: KM12 colon

COc1ccc(-c2nc3ccc(-c4nnc(SCc5ccccc5)o4)cc3[nH]2)cc1OC
GI50 [1]: 8.32 µM | TGI [1]: > 100 µM | GI50 [2]: 5.6 µM | TGI [2]: > 100 µM | GI50 [3]: 32.4 µM | TGI [3]: > 100 µM | GI50 [4]: 27.8 µM | TGI [4]: > 100 µM | GI50 [5]: > 100 µM | TGI [5]: > 100 µM | GI50 [6]: 22 µM | TGI [6]: > 100 µM | GI50 [7]: 9.71 µM | TGI [7]: > 100 µM | GI50 [8]: 23 µM | TGI [8]: > 100 µM | GI50 [9]: 3.18 µM | TGI [9]: 11.5 µM | GI50 [10]: 56.4 µM | TGI [10]: > 100 µM | GI50 [11]: > 100 µM | TGI [11]: > 100 µM | GI50 [12]: 2.24 µM | TGI [12]: 7.27 µM | GI50 [13]: 24.9 µM | TGI [13]: > 100 µM | GI50 [14]: > 100 µM | TGI [14]: > 100 µM | GI50 [15]: 7.15 µM | TGI [15]: > 100 µM | GI50 [16]: 7.89 µM | TGI [16]: 38.6 µM | GI50 [17]: 17 µM | TGI [17]: > 100 µM | GI50 [18]: 36 µM | TGI [18]: > 100 µM | GI50 [19]: 5.67 µM | TGI [19]: > 100 µM | GI50 [20]: 8.53 µM | TGI [20]: > 100 µM | GI50 [21]: 26.5 µM | TGI [21]: > 100 µM | GI50 [22]: 57.5 µM | TGI [22]: > 100 µM | GI50 [23]: 4.8 µM | TGI [23]: > 100 µM | GI50 [24]: 57 µM | TGI [24]: > 100 µM | GI50 [25]: 21 µM | TGI [25]: > 100 µM | GI50 [26]: 32.7 µM | TGI [26]: > 100 µM | GI50 [27]: 21.7 µM | TGI [27]: > 100 µM | GI50 [28]: 4.17 µM | TGI [28]: 94.6 µM | GI50 [29]: > 100 µM

Reference: PubChem BioAssay (NCI)
